Broadly, the aqueous solubility is the concentration that dissolves in the medium under given conditions. The IC50 is the midpoint of a concentration-inhibition curve. One may read the half-life as how long it takes for the measured level to halve. Read a high half-life as slow loss. As a reminder, the Tmax is the time from dosing to the highest level. The Papp A→B is the apparent permeability from the apical to the basolateral side of a cell layer. As usually defined, the Papp B→A is how fast a substance crosses the layer from the basolateral side. What is called solubility is the dissolved amount per volume that the medium holds. Read a low solubility as little dissolved substance.

Values after ≈ are worked out from the molar mass of the structure shown. Values joined by “and” are separate entries in the source; they are usually repeats but may differ in a detail not shown here. Equal entries are not always repeated. Where two headings read alike, the source gives them in different places. Where only a bound is given, the exact number is not on record here.

The source of these data is article PMC4775085 (ACS chemical neuroscience, 2015).

In one series the test system is mutant HSPB1 DRG neurons. In words: Mitochondrial axonal transport in mutant HSPB1 DRG neurons. The format is cell-based, mouse. Conditions: DRG neurons from transgenic mutant HSPB1 mice, 100 nM overnight.
The nature of another series: Aqueous solubility. Conditions: PBS.
The next series deals with T1, HDAC6 (Homo sapiens, UniProt Q9UBN7).
T1 sequence (Q9UBN7 1-1215): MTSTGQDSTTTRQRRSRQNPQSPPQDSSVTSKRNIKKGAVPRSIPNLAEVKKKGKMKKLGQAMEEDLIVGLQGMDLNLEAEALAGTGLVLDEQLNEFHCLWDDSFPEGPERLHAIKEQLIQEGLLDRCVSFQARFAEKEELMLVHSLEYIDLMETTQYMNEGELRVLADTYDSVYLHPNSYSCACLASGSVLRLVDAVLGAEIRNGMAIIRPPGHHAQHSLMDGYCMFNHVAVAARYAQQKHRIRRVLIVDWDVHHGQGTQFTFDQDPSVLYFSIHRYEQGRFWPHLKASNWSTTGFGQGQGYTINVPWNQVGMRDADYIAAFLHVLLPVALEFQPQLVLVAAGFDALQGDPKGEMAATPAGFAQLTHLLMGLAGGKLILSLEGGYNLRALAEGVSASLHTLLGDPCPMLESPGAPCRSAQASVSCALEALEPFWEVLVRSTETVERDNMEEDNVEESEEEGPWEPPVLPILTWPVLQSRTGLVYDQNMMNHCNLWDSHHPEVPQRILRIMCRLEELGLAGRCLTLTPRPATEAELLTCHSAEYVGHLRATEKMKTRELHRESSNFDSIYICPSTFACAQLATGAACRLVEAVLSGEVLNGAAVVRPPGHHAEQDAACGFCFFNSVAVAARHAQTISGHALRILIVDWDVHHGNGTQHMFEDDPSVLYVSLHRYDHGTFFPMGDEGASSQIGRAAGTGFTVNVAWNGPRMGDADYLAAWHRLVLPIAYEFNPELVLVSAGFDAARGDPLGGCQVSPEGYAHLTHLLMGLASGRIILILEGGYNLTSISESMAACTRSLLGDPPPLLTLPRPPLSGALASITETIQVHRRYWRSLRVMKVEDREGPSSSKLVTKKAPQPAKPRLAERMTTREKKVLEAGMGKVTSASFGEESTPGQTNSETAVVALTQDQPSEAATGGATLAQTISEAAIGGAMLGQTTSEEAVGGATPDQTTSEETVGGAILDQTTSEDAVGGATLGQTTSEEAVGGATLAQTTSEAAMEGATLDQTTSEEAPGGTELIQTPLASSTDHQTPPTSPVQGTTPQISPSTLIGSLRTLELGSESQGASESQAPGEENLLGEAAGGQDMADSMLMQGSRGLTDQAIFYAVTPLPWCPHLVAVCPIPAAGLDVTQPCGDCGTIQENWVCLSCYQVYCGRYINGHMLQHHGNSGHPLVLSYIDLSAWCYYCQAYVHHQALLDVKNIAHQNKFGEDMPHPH
In words: HDAC6 enzymatic inhibition assay. The format is biochemical. Conditions: for Selectivity HDAC1/HDAC6: ratio of HDAC1 and HDAC6 IC50 of Table 1 (fold); for IC50: 10-point enzymatic assay starting from 30 μM, 3-fold serial dilution.

Series [1] in a line: Hepatocyte stability, human. The format is in vitro ADME. Conditions: hepatocytes.
The target of another series is CYP 2C9 (Homo sapiens, UniProt P11712). The series can be described thus: CYP inhibition 2C9.
CYP 2C9, sequence (P11712 whole entry): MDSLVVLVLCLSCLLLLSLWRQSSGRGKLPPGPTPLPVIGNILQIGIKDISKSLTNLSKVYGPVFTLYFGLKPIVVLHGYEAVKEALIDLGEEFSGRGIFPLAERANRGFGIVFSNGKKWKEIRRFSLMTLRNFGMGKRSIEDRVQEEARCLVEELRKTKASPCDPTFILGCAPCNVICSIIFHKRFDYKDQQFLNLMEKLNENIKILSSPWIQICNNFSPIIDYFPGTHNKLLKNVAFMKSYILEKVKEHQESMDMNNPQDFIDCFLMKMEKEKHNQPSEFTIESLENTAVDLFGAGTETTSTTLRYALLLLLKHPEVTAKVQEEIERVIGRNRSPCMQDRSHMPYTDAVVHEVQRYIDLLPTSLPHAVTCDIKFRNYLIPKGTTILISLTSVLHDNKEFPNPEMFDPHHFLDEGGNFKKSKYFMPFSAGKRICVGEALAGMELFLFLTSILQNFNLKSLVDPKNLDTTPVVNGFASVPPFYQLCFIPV
A further series concerns the target CYP 2C19 (Homo sapiens, UniProt P33261). In words: CYP inhibition 2C19.
The target of the next series is CYP 2D6 (Homo sapiens, UniProt P10635). In words: CYP inhibition 2D6. The format is in vitro ADME.
CYP 2D6, sequence (P10635 whole entry): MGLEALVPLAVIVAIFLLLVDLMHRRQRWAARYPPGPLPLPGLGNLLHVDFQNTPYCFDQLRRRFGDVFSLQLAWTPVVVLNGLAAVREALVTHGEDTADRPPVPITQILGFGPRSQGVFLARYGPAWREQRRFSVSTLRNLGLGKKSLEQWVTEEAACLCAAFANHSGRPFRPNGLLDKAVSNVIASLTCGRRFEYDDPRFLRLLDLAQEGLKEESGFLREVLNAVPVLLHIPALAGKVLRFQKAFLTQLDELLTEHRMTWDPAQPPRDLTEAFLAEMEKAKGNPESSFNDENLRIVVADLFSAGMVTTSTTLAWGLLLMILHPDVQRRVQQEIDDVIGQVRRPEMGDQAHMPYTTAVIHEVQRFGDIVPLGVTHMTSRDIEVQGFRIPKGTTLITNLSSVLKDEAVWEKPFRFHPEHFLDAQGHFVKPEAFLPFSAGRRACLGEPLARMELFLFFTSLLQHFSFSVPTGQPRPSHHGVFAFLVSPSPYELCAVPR
A further series in a line: Plasma stability, human. The format is in vitro ADME. Conditions: 120 min.
A short description of series [2]: Hepatocyte stability, mouse. The format is in vitro ADME. Conditions: hepatocytes.
Series [3] in a line: Intravenous and oral plasma pharmacokinetics in male CD1 mice. The format is in vivo. Conditions: CD1, mouse.
The next series in a line: Caco-2 permeability. The format is in vitro ADME. Conditions: human, Caco-2, pH 7.4. Background: Caco-2 cells form a polarised layer with tight junctions and transporters.
Series [4] is described as follows: Liver microsomes stability, mouse. The format is in vitro ADME.
The target of the next series is T2, CYP 1A2 (Homo sapiens, UniProt P05177).
T2 sequence (P05177 1-516): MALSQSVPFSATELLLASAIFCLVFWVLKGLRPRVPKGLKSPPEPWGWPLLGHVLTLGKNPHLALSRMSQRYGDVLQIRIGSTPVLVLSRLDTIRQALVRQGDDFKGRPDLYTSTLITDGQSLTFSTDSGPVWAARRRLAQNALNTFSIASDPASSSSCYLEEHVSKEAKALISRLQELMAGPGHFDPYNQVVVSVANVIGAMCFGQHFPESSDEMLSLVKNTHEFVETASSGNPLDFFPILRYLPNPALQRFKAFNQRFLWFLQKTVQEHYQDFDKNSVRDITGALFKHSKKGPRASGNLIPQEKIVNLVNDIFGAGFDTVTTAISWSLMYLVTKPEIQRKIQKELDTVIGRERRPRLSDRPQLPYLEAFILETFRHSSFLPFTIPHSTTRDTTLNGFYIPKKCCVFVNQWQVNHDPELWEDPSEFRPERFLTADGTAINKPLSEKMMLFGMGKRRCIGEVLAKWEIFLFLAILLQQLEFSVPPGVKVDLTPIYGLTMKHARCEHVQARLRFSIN
The series can be described thus: CYP inhibition 1A2.

Another series is described as follows: Plasma stability, mouse. Conditions: 120 min. The format is in vitro ADME.
A short description of series [5]: Liver microsomes stability, human. The format is in vitro ADME. On the technique in general: Liver microsomes are a subcellular fraction often used to study metabolism.
Setting [6] is: IC50 (nM) HDAC6, mean of two experiments ± standard deviation.

CYP 2C19, sequence (P33261 whole entry): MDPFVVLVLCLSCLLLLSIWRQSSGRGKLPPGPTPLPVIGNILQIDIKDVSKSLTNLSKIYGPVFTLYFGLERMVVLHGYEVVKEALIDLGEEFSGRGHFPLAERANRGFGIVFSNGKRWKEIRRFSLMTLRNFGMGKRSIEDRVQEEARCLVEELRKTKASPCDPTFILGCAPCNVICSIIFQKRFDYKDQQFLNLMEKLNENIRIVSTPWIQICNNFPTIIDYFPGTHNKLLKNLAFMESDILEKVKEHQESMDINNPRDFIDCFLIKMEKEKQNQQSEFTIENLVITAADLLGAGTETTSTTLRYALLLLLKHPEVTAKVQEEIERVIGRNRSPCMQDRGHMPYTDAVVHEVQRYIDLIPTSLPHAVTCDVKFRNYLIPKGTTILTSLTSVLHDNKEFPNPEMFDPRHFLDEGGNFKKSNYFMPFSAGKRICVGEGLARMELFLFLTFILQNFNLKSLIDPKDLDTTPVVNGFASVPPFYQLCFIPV

Turning to `Cc1nc2ccccc2n1Cc1ccc(C(=O)NO)cc1` [12a], the “mitochondrial axonal transport (number of moving mitochondria per 100 μm of neurite)” value with mutant HSPB1 DRG neurons is given as “able to restore the movement of mitochondria”. In addition, the aqueous solubility in “Aqueous solubility” (pH 7.4) stood at 70 µM (≈ 19.7 µg/mL). Also, on HDAC6 (compared to 8 (hydrogen to methyl)), the “fold increase in HDAC6 inhibitory potency” value was 3 fold. The “Selectivity HDAC1/HDAC6” value on HDAC6 is recorded as 955. Further, the IC50 on HDAC6 (read-out: IC50 (nM) HDAC6, mean of two experiments ± standard deviation) was 9 nM and 9.2 nM.

As for `CC(C)c1nc2ccccc2n1Cc1ccc(C(=O)NO)cc1` [12b, N-Hydroxy-4-[(2-isopropyl-1-benzimidazolyl)methyl]benzamide], the “Selectivity HDAC1/HDAC6” value at HDAC6 was 589.

`CC(=O)NCCCc1nc2ccccc2n1Cc1ccc(C(=O)NO)cc1` [12d, 4-[[2-(3-Acetamidopropyl)-1-benzimidazolyl]methyl]-N-hydroxybenzamide]: at HDAC6, the “Selectivity HDAC1/HDAC6” value worked out at 312.

For `CN(C)CCc1nc2ccccc2n1Cc1ccc(C(=O)NO)cc1` [12e, 4-[[2-[2-(Dimethylamino)ethyl]-1-benzimidazolyl]methyl]-N-hydroxybenzamide], the “Selectivity HDAC1/HDAC6” value on HDAC6 turned out to be 416.

At HDAC6 (setting [6]), `O=C(NO)c1ccc(CN2CCNc3ccccc32)cc1` [17a, 4-[[1,2,3,4-Tetrahydroquinoxalin-1-yl]methyl]-N-hydroxybenzamide] displayed a 50% inhibitory concentration (IC50) of 3 nM.

As for `O=C(NO)c1ccc(CN2CCN(CC3CC3)c3ccccc32)cc1` [17b, 4-[[4-(Cyclopropylmethyl)-1,2,3,4-tetrahydroquinoxalin-1-yl]-methyl]-N-hydroxybenzamide], inhibition against HDAC6 (setting [6]) was half-maximal at 39.3 ± 0.3 nM (IC50).

Consider `O=C(NO)c1ccc(CN2CCSc3ccccc32)cc1` [17c, 4-[[2,3-Dihydro-4H-benzo[b][1,4]thiazin-4-yl]methyl]-N-hydroxybenzamide], for which the concentration for half-maximal inhibition (IC50) against HDAC6 (setting [6]) amounted to 6 nM.

For the compound `CC(C)(C)OC(=O)N1CC(=O)N(Cc2ccc(C(=O)NO)cc2)c2ccccc21` [17e, tert-Butyl 4-[4-(Hydroxycarbamoyl)benzyl]-3-oxo-3,4-dihydroquinoxaline-1(2H)-carboxylate], the IC50 against HDAC6 (setting [6]) came out at 34 nM.

In the case of `O=C(NO)c1ccc(Cn2c(=O)cnc3ccccc32)cc1` [17f, N-Hydroxy-4-[(2-oxoquinoxalin-1(2H)-yl)methyl]benzamide], the IC50 against HDAC6 (setting [6]) worked out at 1 nM.

Consider `Cc1nc2ccccc2n1Cc1nc(C(=O)NO)co1` [23a, N-Hydroxy-2-[(2-methyl-1-benzimidazolyl)methyl]oxazole-4-carboxamide], for which the “fold reduction of HDAC6 activity compared to 12a” value at HDAC6 is more than 400 fold.

For `Cc1nc2ccccc2n1Cc1nc(C(=O)NO)cs1` [23b, N-Hydroxy-2-[(2-methyl-1-benzimidazolyl)methyl]thiazole-4-carboxamide], half-maximal inhibition against HDAC6 (setting [6]) (IC50) required 8310 ± 905 nM. The “fold reduction of HDAC6 activity compared to 12a” value on HDAC6 is recorded as more than 900 fold.

On HDAC6 (setting [6]), `Cc1nc2ccccc2n1Cc1ccc(C(=O)NO)cn1` [23c, N-Hydroxy-6-[(2-methyl-1-benzimidazolyl)methyl]nicotinamide] gave an IC50 of 77 nM.

`O=C(NO)c1ccc(Cn2c(C(F)(F)F)nc3ccccc32)c(F)c1` [23e, 3-Fluoro-N-hydroxy-4-[(2-(trifluoromethyl)-1-benzimidazolyl)-methyl]benzamide] showed an IC50 at HDAC6 (setting [6]) of 16 nM. Moreover, on HDAC6, the “Selectivity HDAC1/HDAC6” value is 1500.

For the compound `Cc1nc2cc(F)ccc2n1Cc1ccc(C(=O)NO)cc1` [30b, 4-[(5-Fluoro-2-methyl-1-benzimidazolyl)methyl]-N-hydroxybenzamide], at HDAC6 (setting [6]), half-maximal inhibition (IC50) required 6 nM.

With `CN1CCc2c(c3ccccc3n2Cc2ccc(C(=O)NO)cc2)C1` [tubastatin A, reference compound], the half-life was determined as 1.47 h in series [1], 0.5 h in [2], 5.05 h in series [4] and 25.3 h in series [5]. The half-inhibitory concentration (IC50) against CYP 2C9 was more than 50000 nM; on CYP 2C19, more than 50000 nM; on CYP 2D6, 16000 nM; against CYP 1A2, more than 50000 nM. For the same compound, the “mitochondrial axonal transport (number of moving mitochondria per 100 μm of neurite)” value in the series with mutant HSPB1 DRG neurons is on record as “able to restore the movement of mitochondria”. Further, the “plasma stability remaining percentage” value in “Plasma stability, human” was determined as 96.4%; in “Plasma stability, mouse”, 83.0%. Also, the clearance in series [3] (iv, 3 mg/kg) was 222 mL/min/kg. Besides, the Tmax in series [3] (po, 30 mg/kg) worked out at 0.25 h. Moreover, in “Caco-2 permeability”, the Papp A→B amounted to 2 ×10⁻⁶ cm/s. For the same compound, the apparent permeability from basolateral to apical (Papp B→A) in “Caco-2 permeability” came out at 19.7 ×10⁻⁶ cm/s. In “Aqueous solubility” (pH 7.4, aqueous buffer), this compound gave a solubility of 301 µM (≈ 101 µg/mL).
